Source: patent publication US20250302961A1, “TARGETING MYELOID-DERIVED SUPPRESSOR CELLS (MDSCS) IN BLADDER CANCER TO ENHANCE EFFICACY OF ADOPTIVE CELL THERAPY (ACT)” (H. LEE MOFFITT CANCER CENTER AND RESEARCH INSTITUTE, INC., priority 2022, published 2025)

System: MB49-OVA bladder tumors
Experiment: Gemcitabine pretreatment and ACT with OT-I T-cells in orthotopic MB49-OVA bladder cancer model, tumor growth by ultrasound
Assay type: in vivo, C57BL/6 mice
Conditions: intravesical 500 ug gemcitabine for 30 minutes, then 5×10^6 OT-I T-cells at day 4 (GEM+OT-I)
Protocol: For murine studies, orthotopic MB49-OVA bladder tumors were collected, stained for MDSCs, and analyzed by flow cytometry. Urine samples from bladder cancer patients were also collected and stained for MDSCs. From mice, purified MDSCs and OT-I T-cells were cocultured and from bladder cancer patients, purified urine MDSCs and CD3-stimulated peripheral blood T-cells were cocultured to assess suppression of T-cell proliferation or IFN-gamma secretion. Mice bearing MB49-OVA tumors were treated with intravesical instillation of gemcitabine and/or OT-I T-cells and tumor growth was monitored via ultrasound. C57BL/6 female mice were initially anesthetized and catheterized (Terumo), then pre-treated orthotopically with Poly-L-Lysine in PBS (50 uL at 1μg/mL) for 10 minutes. Then bladders were washed with 50 uL PBS and mice received intravesical instillation of 1×10^5 MB49-OVA murine bladder cancer cells for 30 minutes. Presence of bladder tumors were confirmed via the Vevo 2100 ultrasound system (FUJIFILM VisualSonics Inc.) 10 days after tumor inoculation and ultrasound was performed 1X per week until mice were euthanized. To evaluate whether targeting MDSCs with gemcitabine (GEM) improves transfer of T cells, C57BL/6 mice received intravesical instillation of MB49-OVA tumor cells and were monitored via ultrasound. Seven-ten days after intravesical instillation of tumor, mice were separated into three treatment groups and an untreated (UNTX) group. The gemcitabine group (GEM) and the combination gemcitabine and OT-I treatment group (GEM+OT-I) received intravesical instillation of 500 ug gemcitabine for 30 minutes. The OT-I treatment group (OT-I) and GEM+OT-I treatment groups received intravesical instillation of 5×10^6 OT-I T-cells for 3 hours at day 4 after instillation of Gem. Tumor growth was measured via ultrasound.

Q: What does the source list for `Nc1ccn([C@@H]2O[C@H](CO)[C@@H](O)C2(F)F)c(=O)n1` [gemcitabine]?
A: anti-tumor response (tumor growth via ultrasound) (mice bearing large MB49-OVA tumors (>50 mm3)): improved anti-tumor response; anti-tumor response (tumor growth via ultrasound) (mice bearing large MB49-OVA tumors (>50 mm3), listed as Gemcitabine): improves adoptive cell therapy (ACT); anti-tumor response (tumor growth via ultrasound) (mice bearing smaller MB49-OVA tumors (<50 mm3)): little added benefit to ACT
